From patent EP4817617A1, “LIPOSOME AGENT, NKT CELL ACTIVATOR, PHARMACEUTICAL COMPOSITION, AND USES OF THESE” (Ambicion Co., Ltd., priority 2023, dated 2025)

Tested on: triple-negative breast cancer 4T1 cells
Assay: Antitumor effect of α-GalCer liposome against breast cancer by repetitive subcutaneous administration
Assay type: in vivo, BALB/c mouse
Conditions: s.c. left flank, 4 times every 5 days, α-GalCer 15 µg; n=2 shown
Procedure: The following liposome samples prepared using PBS in Example 1 were used. • (1-2) 50% α-GalCer / negatively charged PEG terminal -OH liposome, 100 nm • (1-11) 0% control / negatively charged PEG terminal -OH liposome, 100 nm The liposome samples were adjusted to a PEGylated liposome concentration of 1 mg/mL (in terms of total lipids), and used as administration samples. PBS was used for the adjustment of the PEGylated liposome concentration. The administration sample prepared from the aforementioned (1-2) was used as the α-GalCer liposome administration sample of the Example (αGal lipo), and the administration sample prepared from the aforementioned (1-11) was used as the control liposome administration sample (Ctrl lipo). In addition, a free GalCer sample (Free αGal) in which free α-GalCer not formulated into a liposome was suspended in PBS, and PBS, were each used as administration samples.
As breast cancer cells, triple-negative breast cancer 4T1 cells were used. 4T1 cells (5.0×10^5 to 1.0×10^6 cells/mouse) were subcutaneously inoculated into the vicinity of the second teat from the top of the left chest of a BALB/c mouse (5 weeks old, female, n=2). When the average tumor volume reached 40 to 100 mm^3, the mice were randomly divided into groups. Then, the administration sample was subcutaneously injected into the left flank of the mouse (Day 0). […]

**Q.** `CCCCCCCCCCCCCCCCCCCCCCCCCC(=O)N[C@@H](CO[C@H]1O[C@H](CO)[C@H](O)[C@H](O)[C@H]1O)[C@H](O)[C@H](O)CCCCCCCCCCCCCC` [α-GalCer, (2S,3S,4R)-1-O-(α-D-galactopyranosyl)-2-hexacosanoylamino-1,3,4-octadecanetriol] was tested. Which “increase in tumor volume” value did it give?
**A.** The value was “suppressed”.
